Consider three molecules from patent US11242344B2, “(4-hydroxypyrrolidin-2-yl)-heterocyclic compounds and methods of use thereof” (Genentech, Inc., priority 2017, dated 2022).

Test [1] addresses VHL Elongin B/C complex (Homo sapiens (Human), UniProt P40337). Nature of the test: Fluorescence Polarization (FP) VHL Binding Assay. The note with it: VHL binding, FP assay; geometric mean where more than one measurement. In a few lines: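 Readout is polarization of a TAMRA-coupled VHL ligand (1.67 nM final) displaced from the VHL(E55-D213)/Elongin B/C complex (2.64 nM final) after 1 h incubation at room temperature in pH 8.0 Tris buffer with 1% DMSO. Data normalized to no-VHL and compound-free controls, with compound fluorescence subtracted, and fitted by four-parameter curve for IC50.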

The test system of test [2] is MYC expression. Nature of the test: Inhibition of MYC expression in MV-4-11 cells. The test is classed as cell-based. Particulars: for IC50: QuantiGene 2.0, geometric mean; for Maximum Inhibition (%): maximum inhibition of MYC expression. The protocol:
Pharmacologic inhibition of MYC is achievable through targeting BET bromodomains through small molecule binder or degrader mechanisms. Such inhibitors may have clinical utility given the widespread pathogenetic role of MYC in cancer. See, e.g., Mertz J, et al., “Targeting MYC dependence in cancer by inhibiting BET bromodomains,” (2011) Proc. Natl. Acad. Sci. USA, Vol. 108 (40), pp. 16669-16674.
To determine the inhibition of MYC expression, MV-4-11 cells (ATCC) were plated at 10,000 cells per well in 96-well plates in RPMI1640 media supplemented with 10% fetal bovine serum and 2 mM L-glutamine. Test compounds diluted in DMSO were transferred to the cell plates, keeping final DMSO concentration consistent at 0.1%, and incubated for 4 h at 37° C. Lysis and analysis for MYC expression were carried out using QuantiGene 2.0 reagents (Affymetrix/eBioscience, probe set cat #SA-50182) and following the vendor's instructions. Luminescence was read using an EnVision plate reader (PerkinElmer) and IC50s generated in Genedata Screener using a 4-parameter non-linear regression fit.
Effective degraders will surpass this and inhibit >95% of MYC, thus following the maximum inhibition within this assay provides valuable SAR. Where more than one measurement was performed for the same assay, the value reported is the geometric mean of all values.

Each structure is given as a SMILES string. A value given as a limit tells only on which side of the number the result lay.

Chain of VHL Elongin B/C complex (P40337 whole entry, looked up): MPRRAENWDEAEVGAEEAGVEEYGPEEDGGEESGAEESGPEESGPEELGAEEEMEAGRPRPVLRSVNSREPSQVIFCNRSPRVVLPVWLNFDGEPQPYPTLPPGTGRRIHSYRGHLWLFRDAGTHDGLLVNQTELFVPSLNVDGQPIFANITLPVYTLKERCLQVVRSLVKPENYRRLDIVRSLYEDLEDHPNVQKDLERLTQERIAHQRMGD
Chain of VHL Elongin B/C complex (Q15370 whole entry partner, looked up): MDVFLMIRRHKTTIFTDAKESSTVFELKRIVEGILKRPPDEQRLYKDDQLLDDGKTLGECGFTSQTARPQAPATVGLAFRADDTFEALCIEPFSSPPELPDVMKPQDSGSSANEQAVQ
Chain of VHL Elongin B/C complex (Q15369 whole entry partner, looked up): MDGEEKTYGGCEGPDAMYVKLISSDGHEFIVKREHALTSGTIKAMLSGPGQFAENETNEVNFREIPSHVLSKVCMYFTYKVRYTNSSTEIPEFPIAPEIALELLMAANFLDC

On to `Cc1ncsc1-c1ccc([C@]2(C)NC(C3C[C@@H](O)CN3C(=O)C(c3cc(OCCCCCNC(=O)c4cc5c(cc4CS(C)(=O)=O)-c4cn(C)c(=O)c6[nH]cc(c46)CN5c4ncc(F)cc4F)no3)C(C)C)=NC2=O)cc1` (single isomer, unassigned) [Example 1001.4], for which the IC50 was over 100 µM in test [1] and 26.1 nM in test [2] (4 h). For the same molecule, the “Maximum Inhibition (%)” value in test [2] (4 h) is listed as 75.7%.
Take `Cc1ncsc1-c1ccc(C2(C)NC(C3C[C@@H](O)CN3C(=O)C(c3cc(OCCN4CC[C@H](NC(=O)c5cc6c(cc5CS(C)(=O)=O)-c5cn(C)c(=O)c7[nH]cc(c57)CN6c5ncc(F)cc5F)C4)no3)C(C)C)=NC2=O)cc1` (single isomer, unassigned) [Example 1002.4]: in test [2] (4 h), 80.4 nM corresponded to half-maximal inhibition (IC50) and the “Maximum Inhibition (%)” value amounted to 69.9%.
As for `Cc1ncsc1-c1ccc(C2(C)NC(C3C[C@@H](O)CN3C(=O)C(c3cc(OCCN4CC[C@H](NC(=O)c5cc6c(cc5CS(C)(=O)=O)-c5cn(C)c(=O)c7[nH]cc(c57)CN6c5ncc(F)cc5F)C4)no3)C(C)C)=NC2=O)cc1` (single isomer, unassigned) [Example 1002.3], the “Maximum Inhibition (%)” value in test [2] (4 h) was determined as 69.8%. In test [2] (Homo sapiens, MV4-11, 4 h), this molecule came in with an IC50 of 123 nM.
